Columns and labels:
[1] = target: T1, Histamine H1 receptor (Homo sapiens, UniProt P35367); settings: HEK293T, time 4.0 hrs
[2] = target: T1, Histamine H1 receptor; settings: HEK293T, time 4.0 hrs; remark: listed apart in the source
[3] = target: T1, Histamine H1 receptor; assay type: cell-based; settings: hek293t
[4] = target: T1, Histamine H1 receptor; assay: biochemical; assay type: cell-based, HEK293T
Description: Displacement of [3H]-mepyramine from human histamine H1 receptor expressed in HEK293T cells assessed as dissociation constant incubated for 4 hrs by competitive binding assay

[5] = target: T1, Histamine H1 receptor; assay: biochemical; assay type: cell-based, HEK293T; remark: listed apart in the source
Description: Displacement of [3H]-mepyramine from human histamine H1 receptor expressed in HEK293T cells assessed as inhibition constant incubated for 4 hrs by competitive binding assay

T1 sequence (P35367 whole entry): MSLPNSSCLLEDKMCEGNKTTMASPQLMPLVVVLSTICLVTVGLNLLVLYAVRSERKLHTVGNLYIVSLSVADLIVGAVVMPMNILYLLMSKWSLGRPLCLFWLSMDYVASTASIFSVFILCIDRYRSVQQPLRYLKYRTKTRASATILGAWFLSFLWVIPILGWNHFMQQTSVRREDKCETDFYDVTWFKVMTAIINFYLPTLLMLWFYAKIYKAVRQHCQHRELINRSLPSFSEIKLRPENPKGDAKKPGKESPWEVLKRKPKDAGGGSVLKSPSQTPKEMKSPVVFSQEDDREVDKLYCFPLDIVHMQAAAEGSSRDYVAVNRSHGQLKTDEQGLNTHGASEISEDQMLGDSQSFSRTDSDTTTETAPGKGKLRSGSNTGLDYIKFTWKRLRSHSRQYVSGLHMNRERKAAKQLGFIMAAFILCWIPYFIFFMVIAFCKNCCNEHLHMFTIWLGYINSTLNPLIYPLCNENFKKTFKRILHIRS

Compound | Retention time [1] [min] | Ka [2] | Dissociation rate constant (koff) [3] [s⁻¹] | Kd [4] [nM] | Ki [5] [nM]
CN(C)CC/C=C1/c2ccccc2COc2ccc(CC(=O)O)cc21 | 190 | 1.9 10^6/M/min |  |  | 
CN1CCC(Oc2cc(CC(=O)O)ccc2Cc2ccccc2)CC1 | 6 | 1.3 10^6/M/min | 0.00283 |  | 
CN1CCC(Oc2cc(CO)ccc2Cc2ccccc2)CC1 | 4 | 98 10^6/M/min | 0.00417 |  | 
O=C(O)CCCCN1CCC(Oc2ccccc2Cc2ccccc2)CC1 | 23 | 3.2 10^6/M/min | 0.00075 |  | 
CN1CCC(Oc2cc(C(=O)O)ccc2Cc2ccccc2)CC1 | 1.2 | 0.06 10^6/M/min | 0.017 |  | 
COc1ccc(Cc2ccccc2)c(OC2CCN(C)CC2)c1 | 2 | 60 10^6/M/min | 0.0083 |  | 
O=C(O)CCCN1CCC(Oc2ccccc2Cc2ccccc2)CC1 | 10 | 2.9 10^6/M/min | 0.0017 |  | 
O=C(O)CCN1CCC(Oc2ccccc2Cc2ccccc2)CC1 | 9 | 2.9 10^6/M/min | 0.00183 |  | 
CN1CCC(Oc2ccccc2Cc2ccccc2)CC1 | 2 | 160 10^6/M/min |  |  | 
CN1CCC(Oc2c(Cc3ccccc3)cccc2C(=O)O)CC1 | 4.2 | 0.5 10^6/M/min | 0.004 |  | 

Results, then the compound that gave them:

Retention time [1] [min] | Ka [2] | Dissociation rate constant (koff) [3] [s⁻¹] | Kd [4] [nM] | Ki [5] [nM] | Compound
15 | 2.37 10^6/M/min | 0.00115 |  |  | O=C(O)CCCCCCCN1CCC(Oc2ccccc2Cc2ccccc2)CC1
18 | 0.62 10^6/M/min | 0.000917 |  |  | CN1CCC(Oc2cc(/C=C/C(=O)O)ccc2Cc2ccccc2)CC1
3 | 1.6 10^6/M/min | 0.000917 |  |  | CN1CCC(Oc2c(/C=C/C(=O)O)cccc2Cc2ccccc2)CC1
48 | 3.7 10^6/M/min | 0.00035 |  |  | c1ccc(Cc2ccccc2OC2CCN(CCCCc3nnn[nH]3)CC2)cc1
1.4 | 27 10^6/M/min | 0.0122 |  |  | CN1CCC(Oc2c(CO)cccc2Cc2ccccc2)CC1
 | 36 10^6/M/min |  |  |  | Cc1ccc(/C(=C\CN2CCCC2)c2ccccn2)cc1 [TRIPROLIDINE]
12.1 | 2.08 10^6/M/min | 0.00138 | 39.8 | 39.8 | CC(=O)Cc1cccc(Cc2ccccc2)c1OC1CCN(C)CC1
 | 1.4 10^6/M/min |  |  |  | O=C(O)COCCN1CCN([C@H](c2ccccc2)c2ccc(Cl)cc2)CC1
17 | 4 10^6/M/min | 0.001 |  |  | O=C(O)CCCCCN1CCC(Oc2ccccc2Cc2ccccc2)CC1
13 | 2.5 10^6/M/min | 0.00127 |  |  | O=C(O)CCCCCCN1CCC(Oc2ccccc2Cc2ccccc2)CC1
